In patent US11117885B2, “Compounds having estrogen receptor alpha degradation activity and uses thereof” (ACCUTAR BIOTECHNOLOGY INC., priority 2018, dated 2021):

target: T1, ERα (Homo sapiens, UniProt P03372); assay: ERα degradative activity in T47D cells (western blot, densitometry); format: cell-based; set-up: endogenous in cells; host or cells: T47D; conditions: T47D cell line; concentration at which 50% of the target protein (ERα) is degraded
T1 sequence (P03372 1-595): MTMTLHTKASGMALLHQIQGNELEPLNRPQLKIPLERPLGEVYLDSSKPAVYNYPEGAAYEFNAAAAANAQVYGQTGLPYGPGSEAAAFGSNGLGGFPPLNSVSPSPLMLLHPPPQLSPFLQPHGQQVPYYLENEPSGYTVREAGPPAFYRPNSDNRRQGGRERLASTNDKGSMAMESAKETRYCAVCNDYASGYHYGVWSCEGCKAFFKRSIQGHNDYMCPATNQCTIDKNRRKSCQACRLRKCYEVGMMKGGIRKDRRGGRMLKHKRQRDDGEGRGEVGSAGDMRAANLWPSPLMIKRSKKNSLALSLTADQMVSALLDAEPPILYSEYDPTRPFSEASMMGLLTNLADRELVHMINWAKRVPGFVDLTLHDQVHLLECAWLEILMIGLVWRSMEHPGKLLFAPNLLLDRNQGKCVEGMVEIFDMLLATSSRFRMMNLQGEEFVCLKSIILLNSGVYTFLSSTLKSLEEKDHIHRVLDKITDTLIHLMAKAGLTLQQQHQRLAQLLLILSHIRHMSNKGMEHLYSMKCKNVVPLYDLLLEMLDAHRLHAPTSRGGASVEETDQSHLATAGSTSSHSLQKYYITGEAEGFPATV
Protocol: T47D cells were plated in 24-well plates at 1.5×10^5 cells/well in the RPMI growth medium containing 10% FBS and 1× Penicillin Streptomycin, and then incubated at 37° C. overnight. The following day, the test compound was administered to the cells by using 1000× compound stock solution prepared in DMSO at various concentrations. After administration of the compound, the cells were then incubated at 37 C for various period of treatment time, e.g., as indicated in the figures.
Upon completion, the cells were washed with PBS and protein was collected in Laemmli sample buffer (1×; VWR International). Protein was isolated from cell lysate (approximately 25 μg) by SDS-PAGE and transferred to nitrocellulose membranes. Non-specific binding was blocked by incubation with blocking buffer (5% milk in Tris-buffered saline with 0.1% Tween 20 (“TBS-T”)) at rt for 60 minutes.
The membrane was then incubated with primary antibodies (mouse anti-ERα (1:500, Santa Cruz), mouse anti-GAPDH (1:5,000, Santa Cruz), or mouse anti-actin (1:4,000, Santa Cruz)) overnight at 4° C., followed by washing (3 times) with TBS-T, and then incubation with horseradish peroxidase-conjugated rabbit anti-mouse IgG (1:5,000) for 60 minutes. After the TBS-T washes, blots were developed with an enhanced chemiluminescence kit (ThermoFisher Scientific) and the bands were imaged and quantified by densitometry (Bio-Rad).
The DC50 values (i.e., the concentration of test compound at which 50% of the target protein is degraded) was calculated for various compounds of the present disclosure and are shown in the Table 3, below. A corresponds to a DC50 value less than or equal to 1.5 μM; B corresponds to a DC50 value greater than 1.5 μM and less than 3 μM; and C corresponds to a DC50 value greater than 3 μM.

Compound | DC50 [nM]
CC/C(=C(\c1ccccc1)c1ccc(OCCN(C)C(=O)CCOCCNc2cccc3c2C(=O)N(C2CCC(=O)NC2=O)C3=O)cc1)c1ccccc1 (stereo not shown) [Compound 8, (Z)-3-(2-((2-(2,6-dioxopiperidin-3-yl)-1,3-dioxoisoindolin-4-yl)amino)ethoxy)-N-(2-(4-(1,2-diphenylbut-1-en-1-yl)phenoxy)ethyl)-N-methylpropanamide] | > 3000
CC/C(=C(\c1ccccc1)c1ccc(OCCN(C)C(=O)CCOCCOCCNc2cccc3c2C(=O)N(C2CCC(=O)NC2=O)C3=O)cc1)c1ccccc1 (stereo not shown) [Compound 15, (Z)-3-(2-(2-((2-(2,6-Dioxopiperidin-3-yl)-1,3-dioxoisoindolin-4-yl)amino)ethoxy)ethoxy)-N-(2-(4-(1,2-diphenylbut-1-en-1-yl)phenoxy)ethyl)-N-methylpropanamide] | > 3000
CC/C(=C(\c1ccccc1)c1ccc(OCCN(C)C(=O)CCOCCOCCOCCOCCNc2cccc3c2C(=O)N(C2CCC(=O)NC2=O)C3=O)cc1)c1ccccc1 (stereo not shown) [Compound 54, (Z)-1-((2-(2,6-dioxopiperidin-3-yl)-1,3-dioxoisoindolin-4-yl)amino)-N-(2-(4-(1,2-diphenylbut-1-en-1-yl)phenoxy)ethyl)-N-methyl-3,6,9,12-tetraoxapentadecan-15-amide] | ≤ 1500
CC/C(=C(\c1ccccc1)c1ccc(OCCN(C)C(=O)CCOCCOCCOCCOCCOCCNc2cccc3c2C(=O)N(C2CCC(=O)NC2=O)C3=O)cc1)c1ccccc1 (stereo not shown) [Compound 64, (Z)-1-((2-(2,6-dioxopiperidin-3-yl)-1,3-dioxoisoindolin-4-yl)amino)-N-(2-(4-(1,2-diphenylbut-1-en-1-yl)phenoxy)ethyl)-N-methyl-3,6,9,12,15-pentaoxaoctadecan-18-amide] | ≤ 1500
CC/C(=C(\c1ccccc1)c1ccc(OCCN(C)C(=O)CNc2cccc3c2C(=O)N(C2CCC(=O)NC2=O)C3=O)cc1)c1ccccc1 (stereo not shown) [Compound 88, (Z)-2-((2-(2,6-dioxopiperidin-3-yl)-1,3-dioxoisoindolin-4-yl)amino)-N-(2-(4-(1,2-diphenylbut-1-en-1-yl)phenoxy)ethyl)-N-methylacetamide] | > 3000
CC/C(=C(\c1ccccc1)c1ccc(OCCN(C)C(=O)CCNc2cccc3c2C(=O)N(C2CCC(=O)NC2=O)C3=O)cc1)c1ccccc1 (stereo not shown) [Compound 89, (Z)-3-((2-(2,6-dioxopiperidin-3-yl)-1,3-dioxoisoindolin-4-yl)amino)-N-(2-(4-(1,2-diphenylbut-1-en-1-yl)phenoxy)ethyl)-N-methylpropanamide] | ≤ 1500
CC/C(=C(\c1ccccc1)c1ccc(OCCN(C)C(=O)CCCNc2cccc3c2C(=O)N(C2CCC(=O)NC2=O)C3=O)cc1)c1ccccc1 (stereo not shown) [Compound 108, (Z)-4-((2-(2,6-dioxopiperidin-3-yl)-1,3-dioxoisoindolin-4-yl)amino)-N-(2-(4-(1,2-diphenylbut-1-en-1-yl)phenoxy)ethyl)-N-methylbutanamide] | ≤ 1500
CC/C(=C(\c1ccccc1)c1ccc(OCCN(C)C(=O)CCCCCNc2cccc3c2C(=O)N(C2CCC(=O)NC2=O)C3=O)cc1)c1ccccc1 (stereo not shown) [Compound 120, (Z)-6-((2-(2,6-dioxopiperidin-3-yl)-1,3-dioxoisoindolin-4-yl)amino)-N-(2-(4-(1,2-diphenylbut-1-en-1-yl)phenoxy)ethyl)-N-methylhexanamide] | ≤ 1500
CC/C(=C(\c1ccccc1)c1ccc(OCCN(C)C(=O)CCCCCCNc2cccc3c2C(=O)N(C2CCC(=O)NC2=O)C3=O)cc1)c1ccccc1 (stereo not shown) [Compound 126, (Z)-7-((2-(2,6-dioxopiperidin-3-yl)-1,3-dioxoisoindolin-4-yl)amino)-N-(2-(4-(1,2-diphenylbut-1-en-1-yl)phenoxy)ethyl)-N-methylheptanamide] | 1500 to 3000
CC/C(=C(\c1ccccc1)c1ccc(OCCN(C)C(=O)CCCCCCCNc2cccc3c2C(=O)N(C2CCC(=O)NC2=O)C3=O)cc1)c1ccccc1 (stereo not shown) [Compound 143, (Z)-8-((2-(2,6-dioxopiperidin-3-yl)-1,3-dioxoisoindolin-4-yl)amino)-N-(2-(4-(1,2-diphenylbut-1-en-1-yl)phenoxy)ethyl)-N-methyloctanamide] | 1500 to 3000
